Experimental findings from patent US8664257B2, “Oxygen-substituted 3-heteroaroylamino-propionic acid derivatives and their use as pharmaceuticals” (Sanofi, priority 2010, dated 2014) are described below.

The target in this assay is T1, Recombinant human cathepsin A (Homo sapiens, UniProt P10619).
T1 construct: Recombinant human cathepsin A (residues 29-480, with a C-terminal 10-His tag); 10-His (C); purchased R&D Systems 1049-SE
T1 sequence (P10619 29-312 limits assumed): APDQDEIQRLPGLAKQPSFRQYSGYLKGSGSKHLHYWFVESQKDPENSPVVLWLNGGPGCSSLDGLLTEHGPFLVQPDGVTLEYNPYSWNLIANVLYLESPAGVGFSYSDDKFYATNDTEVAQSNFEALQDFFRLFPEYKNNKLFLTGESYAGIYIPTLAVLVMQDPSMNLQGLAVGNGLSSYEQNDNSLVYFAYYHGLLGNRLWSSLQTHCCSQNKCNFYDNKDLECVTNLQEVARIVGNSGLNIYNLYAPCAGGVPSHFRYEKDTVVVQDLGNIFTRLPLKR
T1 sequence (P10619 327-480 limits assumed): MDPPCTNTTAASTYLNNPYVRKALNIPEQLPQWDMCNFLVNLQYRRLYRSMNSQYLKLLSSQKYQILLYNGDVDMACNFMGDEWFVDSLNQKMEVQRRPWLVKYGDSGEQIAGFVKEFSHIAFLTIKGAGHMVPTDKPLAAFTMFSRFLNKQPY
Nature of the assay: Cathepsin A inhibitory activity. In kind it is biochemical. The gist of the method:
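Read-out was microfluidic separation of cleaved vs. uncleaved Bodipy FL-bradykinin (2 μM), giving turnover, % inhibition and IC50. Compound and 833 ng/ml enzyme met for 15 min RT in pH 5.5 MES/DTT before substrate (15 min RT). The 29-480 His-tagged human enzyme was first activated by cathepsin L, then E-64 (10 μM).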

Setting [1] is: recombinant human cathepsin A 833 ng/ml, Bodipy FL-labeled bradykinin 2 μM, pH 5.5, read-out: CATH-A IC50.
The mark [2] stands for this setting: recombinant human cathepsin A, read-out: Activity (2): Cathepsin A inhibitory activity, IC50 class.

pIC50: −log10 of the molar value. Where two headings read alike, the source gives them in different places.

What is called pIC50 is the negative decadic logarithm of the IC50, by convention in mol/L. On to `O=C(O)CC(NC(=O)c1cc(O)n(-c2cccc(Cl)c2)n1)c1cccc(C(F)(F)F)c1F` (stereo not drawn) [Example 418, 3-{[1-(3-Chloro-phenyl)-5-hydroxy-1H-pyrazole-3-carbonyl]-amino}-3-(2-fluoro-3-trifluoromethyl-phenyl)-propionic acid], for which the pIC50 was 5.28 under setting [1] and 4.52 to 6.00 under setting [2].

Consider `Cc1ccc(C(CC(=O)O)NC(=O)c2cc(O)n(-c3cccc(Cl)c3)n2)c(C)c1` (stereo not drawn) [Example 419], for which the negative logarithm of the IC50 (pIC50) under setting [2] was 6.00 to 7.00. For the compound `Cc1cc(F)ccc1C(CC(=O)O)NC(=O)c1cc(O)n(-c2cccc(Cl)c2)n1` (stereo not drawn) [Example 420], under setting [2], the pIC50 was 6.00 to 7.00. For the compound `O=C(O)CC(NC(=O)c1cc(O)n(-c2cccc(Cl)c2)n1)c1ccc(-c2ccccc2)cc1` (stereo not drawn) [Example 421], the pIC50 under setting [2] is 6.00 to 7.00. Regarding `O=C(O)C[C@H](NC(=O)c1cc(O)n(-c2cccc(Cl)c2)n1)c1ccccc1F` [Example 422], under setting [2], the negative logarithm of the IC50 (pIC50) is 6.00 to 7.00. Turning to `COc1ccc([C@H](CC(=O)O)NC(=O)c2cc(O)n(-c3ccc(Cl)cc3)n2)cc1` [Example 423], the pIC50 under setting [2] was 4.52 to 6.00. On the same count and under the same terms, then `COc1ccc(C(CC(=O)O)NC(=O)c2cc(O)n(-c3ccc(Cl)cc3)n2)c(Cl)c1` (stereo not drawn) [Example 424], with 6.00 to 7.00; and `O=C(O)CC(NC(=O)c1cc(O)n(-c2ccc(Cl)cc2)n1)c1ccc(-c2ccc(F)cc2)cc1` (stereo not drawn) [Example 425], with 4.52 to 6.00.

Consider `COc1ccc(C(CC(=O)O)NC(=O)c2cc(O)n(-c3cccc(F)c3)n2)c(C)c1` (stereo not drawn) [Example 426], for which, under setting [2], the pIC50 was 6.00 to 7.00.

As for `COc1ccc([C@H](CC(=O)O)NC(=O)c2cc(O)n(-c3cccc(F)c3)n2)cc1` [Example 427], the pIC50 under setting [2] was 4.52 to 6.00. Same read-out and setting: the figure for `O=C(O)C[C@H](NC(=O)c1cc(O)n(-c2cccc(F)c2)n1)c1cccc(Cl)c1Cl` [Example 428] is 6.00 to 7.00; for `COc1cccc([C@H](CC(=O)O)NC(=O)c2cc(O)n(-c3cccc(F)c3)n2)c1` [Example 429] it is 6.00 to 7.00; for `O=C(O)C[C@H](NC(=O)c1cc(O)n(-c2cccc(F)c2)n1)c1cccc(Cl)c1` [Example 430] it is 6.00 to 7.00.

As to `COc1cccc([C@H](CC(=O)O)NC(=O)c2cc(O)n(-c3cccc(F)c3)n2)c1OC` [Example 431], under setting [2], the pIC50 was 6.00 to 7.00. Turning to `Cc1cccc(C(CC(=O)O)NC(=O)c2cc(O)n(-c3cccc(F)c3)n2)c1C` (stereo not drawn) [Example 432], the negative-log IC50 (pIC50) under setting [2] was 6.00 to 7.00. Consider `O=C(O)C[C@H](NC(=O)c1cc(O)n(-c2cccc(F)c2)n1)c1ccccc1F` [Example 433], for which the pIC50 under setting [2] is 6.00 to 7.00. Same read-out and setting: then `O=C(O)C[C@H](NC(=O)c1cc(O)n(-c2cccc(F)c2)n1)c1c(F)cccc1F` [Example 434], with 6.00 to 7.00; and `COc1ccc([C@H](CC(=O)O)NC(=O)c2cc(O)n(-c3ccc(F)cc3)n2)cc1` [Example 435], with 6.00 to 7.00; and `COc1ccc(C(CC(=O)O)NC(=O)c2cc(O)n(-c3ccc(F)cc3)n2)c(OC)c1` (stereo not drawn) [Example 436], with 4.52 to 6.00. `O=C(O)CC(NC(=O)c1cc(O)n(-c2ccc(F)cc2)n1)c1ccc(Oc2ccccc2)cc1` (stereo not drawn) [Example 437]: the pIC50 under setting [2] was 6.00 to 7.00.

For `COc1ccc([C@H](CC(=O)O)NC(=O)c2cc(O)n(-c3ccc(F)cc3)n2)cn1` [Example 438], under setting [2], the pIC50 was 6.00 to 7.00. As to `O=C(O)CC(NC(=O)c1cc(O)n(-c2ccnc(Cl)c2)n1)c1ccc(-c2ccccc2)cc1` (stereo not drawn) [Example 439], the pIC50 under setting [2] was 6.00 to 7.00. On to `O=C(O)CC(NC(=O)c1cc(O)n(-c2cccnc2)n1)c1ccc(-c2ccccc2)cc1` (stereo not drawn) [Example 440], for which the pIC50 under setting [2] was 4.52 to 6.00. Consider `COc1cccc(F)c1C(CC(=O)O)NC(=O)c1cc(O)n(-c2ccccc2)n1` (stereo not drawn) [Example 441, 3-(2-Fluoro-6-methoxy-phenyl)-3-[(5-hydroxy-1-phenyl-1H-pyrazole-3-carbonyl)-amino]-propionic acid], for which the negative-log IC50 (pIC50) is, setting by setting: under setting [1], 6.29; under setting [2], 6.00 to 7.00. For `O=C(O)CC(NC(=O)c1cc(O)n(-c2ccccc2)n1)c1ccccc1Oc1ccccc1` (stereo not drawn) [Example 442], under setting [2], the pIC50 is 4.52 to 6.00.
